# Reference: patent US20190054054A1, “Methods reducing or preventing oxidation of high density lipoprotein (HDL)” (Amarin Pharmaceuticals Ireland Limited, priority 2017, published 2019)
# How the values were obtained:
# [1] = Glucose-induced membrane lipid peroxidation (LOOH, CHOD-iodide assay) in DLPC/cholesterol vesicles (Examples 4 and 5); type: biochemical; settings: for inhibition of the peroxidative effects of glucose (LOOH formation) / effect on LOOH formation / lipid peroxidation (FIG. 3): 1:30 drug-to-phospholipid mole ratio; for effect on LOOH formation / lipid peroxidation (FIG. 3): glucose, 72- and 96-hour time points
# Description: Vitamin E (α-tocopherol) was also purchased from Sigma-Aldrich and prepared in ethanol at 1.0 mM (e=[…] at 294 nm) just prior to experimental use. […] All test compounds were further diluted in ethanol or aqueous buffer as needed. Glucose was prepared in saline buffer (0.5 mM HEPES, 154 mM NaCl, pH 7.3) at 11.0 mM (200 mg/dL). CHOD-iodide color reagent (stock) was prepared, with slight modification, as described by from El-Saadani et al. (J. […] Samples were shell-dried under nitrogen gas and placed under vacuum for 1 h to remove residual solvent. […] Lipid suspensions were then vortexed for 3 min at ambient temperature to form MLVs. All MLV samples were subjected to time-dependent autoxidation by incubating at 37° C. in an uncovered, shaking water bath. This method allows lipid peroxidation to occur gradually without requiring the use of exogenous initiators. Small aliquots (5-100 μL) of each sample were removed, immediately following MLV preparation (0 hour) and after exposing samples to oxidative conditions for 72 or 96 hour, and combined with 1.0 mL of activated CHOD-iodide color reagent. Aliquot volume was reduced with each successive time point to ensure that spectrophotometric readings were within the optimal adsorption range. Test samples were covered and incubated in darkness at room temperature for at least 4 hr. Sample absorbances were then measured against a CHOD blank at 365 nm using a Beckman DU-640 spectrophotometer. The CHOD colorimetric assay is based on the oxidation of iodide (I^−) by lipid hydroperoxide (LOOH) to form triiodide (I3^−), the quantity of which is directly proportional to the amount of LOOH present in the lipid sample. The molar absorptivity (ε) of I3^− is 2.46×10^4 M^−1 cm^−1 at 365 nm. An experiment was conducted to compare the ability of EPA to prevent lipid hydroperoxide formation in model membranes treated with glucose to two other 20-carbon fatty acids: eicosanoic acid (“EA,” also referred to as arachidic acid, C20:0) and eicosatrienoic acid (“ETE,” C20:3, n-3). All MLV samples were subjected to time-dependent autoxidation by incubating at 37° C. in an uncovered, shaking water bath. This method allows lipid peroxidation to occur gradually without requiring the use of exogenous initiators. Small aliquots (5-100 μL) of each sample were removed, immediately following MLV preparation (0 hr) and after exposing samples to oxidative conditions for 72 or 96 hr, and combined with 1.0 mL of activated CHOD-iodide color reagent. Aliquot volume was reduced with each successive time point to ensure that spectrophotometric readings were within the optimal adsorption range. Test samples were covered and incubated in darkness at room temperature for at least 4 hr. Sample absorbances were then measured against a CHOD blank at 365 nm using a Beckman DU-640 spectrophotometer. The CHOD colorimetric assay is based on the oxidation of iodide (I^−) by lipid hydroperoxide (LOOH) to form triiodide (I3^−), the quantity of which is directly proportional to the amount of LOOH present in the lipid sample. The molar absorptivity (ε) of I3^− is 2.46×10^4 M^−1 cm^−1 at 365 nm.
# [2] = system: human sdLDL; assay: Copper-induced sdLDL oxidation, TBARS (Example 7); type: biochemical; settings: for effect on sdLDL oxidation as compared to vehicle-treated controls: all at 10 μM, 1 hour (FIG. 16)
# Description: An experiment to study the antioxidant effect of EPA in LDL and small dense […] performed. […] Fenofibrate, gemfibrozil, and niacin were purchased from Sigma-Aldrich. […] Vitamin E was also incubated with sample aliquots as a positive control.
smiles,measurement,setting,value
"CC/C=C\C/C=C\C/C=C\C/C=C\C/C=C\CCCC(=O)O [EPA, cis-5,8,11,14,17-eicosapentaenoic acid]",inhibition of the peroxidative effects of glucose (LOOH formation),"[1]; glucose 200 mg/dL, 72 hours",88%
same,inhibition of the peroxidative effects of glucose (LOOH formation),"[1]; glucose 200 mg/dL, 96 hours",86%
same,effect on LOOH formation / lipid peroxidation (FIG. 3),[1],significantly inhibited LOOH formation
same,"membrane LOOH formation, dose dependence","[1]; EPA at 1.0 and 5.0 μM, glucose-treated",inhibit membrane LOOH formation in a dose-dependent manner
same,"LOOH formation compared to vehicle only, glucose only, glucose and EA, or glucose and ETE","[1]; Example 5, 72 and 96 hr",significantly less LOOH formation
same,"antioxidant effect, separate treatments","[1]; each at 1.0 μM, glucose 200 mg/dL, 96 hours",separate and potent antioxidant effects
same,inhibition of sdLDL oxidation as compared to vehicle,"[2]; 1.0 μM (each agent), 1 hr",19±8%
same,effect on sdLDL oxidation as compared to vehicle or DHA,"[2]; 10.0 μM, after 4 hours",significantly inhibited sdLDL oxidation
same,IC50,"[2]; 1 hr, 10 μM CuSO4, read-out: IC50, inhibition of sdLDL oxidation (calculated)",~2 µM
same,inhibition of sdLDL oxidation as compared to vehicle,"[2]; each agent at 10.0 μM, 1 hour (FIG. 17)",92±8%
same,inhibition of TBARS formation,"[2]; highest treatment concentration (10 μM), 1 hr",93±2%
Cc1ccc(C)c(OCCCC(C)(C)C(=O)O)c1 [gemfibrozil],effect on sdLDL oxidation as compared to vehicle-treated controls,[2],no significant effect on sdLDL oxidation
"O=C(O)c1cccnc1 [niacin, nicotinic acid]",effect on sdLDL oxidation as compared to vehicle-treated controls,[2],no significant effect on sdLDL oxidation
"Cc1c(C)c2c(c(C)c1O)CC[C@@](C)(CCC[C@H](C)CCC[C@H](C)CCCC(C)C)O2 [vitamin E, α-tocopherol]",effect on LOOH formation / lipid peroxidation (FIG. 3),[1],no significant effect on lipid peroxidation
same,effect on sdLDL oxidation as compared to vehicle-treated controls,[2],no significant effect on sdLDL oxidation
